According to patent US5482960A, “Nonpeptide endothelin antagonists” (Warner-Lambert Company, priority 1994, dated 1996):

Key:
recombinant human ETB R = biological target: T1, recombinant human ETB R (Homo sapiens, UniProt P24530); assay type: binding; settings: [125I]-ET-1 40 pM, 2 hours at 37° C., CHO-K1 cells, read-out: HERBA-B IC50
T1 construct: expressed in transfected cells; host or cells: CHO-K1 cells (membranes)
T1 sequence (P24530 27-442): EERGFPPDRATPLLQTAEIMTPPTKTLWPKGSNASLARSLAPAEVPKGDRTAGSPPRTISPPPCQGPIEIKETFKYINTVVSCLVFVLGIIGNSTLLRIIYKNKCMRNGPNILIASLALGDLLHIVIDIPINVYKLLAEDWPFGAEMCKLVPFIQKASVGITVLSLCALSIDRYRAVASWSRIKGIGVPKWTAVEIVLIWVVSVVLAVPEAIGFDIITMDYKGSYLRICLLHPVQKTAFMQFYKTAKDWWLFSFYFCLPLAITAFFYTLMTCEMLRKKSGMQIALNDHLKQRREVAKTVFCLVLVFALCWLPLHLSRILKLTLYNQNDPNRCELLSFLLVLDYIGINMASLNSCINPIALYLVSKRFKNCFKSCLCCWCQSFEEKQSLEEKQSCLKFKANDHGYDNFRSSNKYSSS
Experimental: (§1) Membranes were prepared from cultured cells by lysing cells in cold lysis buffer (5 mM HEPES, 2 mM EDTA, pH 7.4) and homogenizing with a Dounce "A" homogenizer. The homogenate was centrifuged at 30,000×g for 20 min at 4° C. […] Radioligand and competing ligands were prepared in binding buffer containing 20 mM Tris, 2 mM EDTA, and 0.1% BSA.

[1] = biological target: T2, rabbit femoral artery (ETA) (Oryctolagus cuniculus, UniProt A5A8K3); test: In vitro antagonism of ET-1 stimulated vasoconstriction (VERA-A) in the rabbit femoral artery (ETA); assay type: cell-based
T2 construct: Femoral and pulmonary arteries were isolated, cleaned of connective tissue, and cut into 4-mm rings; from tissue; host or cells: rabbit femoral artery rings, endothelium denuded
T2 sequence (A5A8K3 21-427): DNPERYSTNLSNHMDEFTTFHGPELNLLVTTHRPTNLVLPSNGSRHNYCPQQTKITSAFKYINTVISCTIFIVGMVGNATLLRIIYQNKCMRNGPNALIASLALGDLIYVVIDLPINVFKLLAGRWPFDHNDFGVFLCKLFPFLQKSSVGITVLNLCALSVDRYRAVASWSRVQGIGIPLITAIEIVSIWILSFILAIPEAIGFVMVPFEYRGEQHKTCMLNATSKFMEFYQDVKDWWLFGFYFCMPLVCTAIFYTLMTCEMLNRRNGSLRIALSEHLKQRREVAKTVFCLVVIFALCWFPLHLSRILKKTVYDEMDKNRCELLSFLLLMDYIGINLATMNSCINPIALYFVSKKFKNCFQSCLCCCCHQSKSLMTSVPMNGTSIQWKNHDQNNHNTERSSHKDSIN
Experimental: (§2) Male New Zealand rabbits were killed by cervical dislocation and exsanguination. Femoral and pulmonary arteries were isolated, cleaned of connective tissue, and cut into 4-mm rings. The endothelium was denuded by placing the rings over hypodermic tubing (32 gauge for femoral rings and 28 gauge for pulmonary rings, Small Parts, Inc, Miami, Fla.) and gently rolling them. […] Resting tension was adjusted to 3.0 g for femoral and 4.0 g pulmonary arteries; the rings were left for 90 minutes to equilibrate.

[2] = biological target: T3, ETA (rabbit renal artery vascular smooth muscle cells) (Oryctolagus cuniculus, UniProt A5A8K3); assay type: binding; settings: [125I]-ET-1 40 pM, 2 hours at 37° C.; read-out: ERBA-A IC50 (converted)
T3 construct: rabbit renal artery vascular smooth muscle cells (ERBA-A); endogenous in cells; host or cells: cultured rabbit renal artery vascular smooth muscle cells (membranes)
T3 sequence (A5A8K3 21-427): T2 sequence (A5A8K3 21-427)
Experimental: as §1, with “The compounds of Formula I are valuable antagonists of endothelin. […] Membranes” for “Membranes”, “BSA. Competing binding assays were initiated by combining membranes, [125I]-ET-1 (40 pM) and the competing ligand in a final volume of 250 uL and incubating for 2 hours at 37° C.” for “BSA.”

recombinant human ETA R = biological target: T4, recombinant human ETA R (Homo sapiens, UniProt P25101); assay type: binding; settings: [125I]-ET-1 40 pM, 2 hours at 37° C., Ltk- cells, read-out: HERBA-A IC50
T4 construct: expressed in transfected cells; host or cells: Ltk- cells (membranes)
T4 sequence (P25101 21-427): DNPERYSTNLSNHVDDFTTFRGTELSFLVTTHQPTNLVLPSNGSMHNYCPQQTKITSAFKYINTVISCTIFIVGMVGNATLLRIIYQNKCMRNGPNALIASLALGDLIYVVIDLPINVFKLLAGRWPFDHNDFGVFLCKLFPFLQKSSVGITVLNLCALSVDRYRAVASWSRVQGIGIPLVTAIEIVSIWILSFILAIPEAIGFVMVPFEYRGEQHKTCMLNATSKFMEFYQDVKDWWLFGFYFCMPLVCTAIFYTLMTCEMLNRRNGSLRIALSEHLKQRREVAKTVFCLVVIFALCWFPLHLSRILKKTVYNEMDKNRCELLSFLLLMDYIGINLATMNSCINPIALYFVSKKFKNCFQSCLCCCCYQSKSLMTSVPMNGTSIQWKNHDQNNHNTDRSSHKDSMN
Experimental: as §1

[3] = biological target: T5, rabbit pulmonary artery (ETB) (Oryctolagus cuniculus, UniProt Q9N0W7); test: Antagonism of sarafotoxin 6c stimulated vasoconstriction in the rabbit pulmonary artery (ETB) (VERA-B); assay type: cell-based
T5 construct: Femoral and pulmonary arteries were isolated, cleaned of connective tissue, and cut into 4-mm rings; from tissue; host or cells: rabbit pulmonary artery rings, endothelium denuded
T5 sequence (Q9N0W7 27-441): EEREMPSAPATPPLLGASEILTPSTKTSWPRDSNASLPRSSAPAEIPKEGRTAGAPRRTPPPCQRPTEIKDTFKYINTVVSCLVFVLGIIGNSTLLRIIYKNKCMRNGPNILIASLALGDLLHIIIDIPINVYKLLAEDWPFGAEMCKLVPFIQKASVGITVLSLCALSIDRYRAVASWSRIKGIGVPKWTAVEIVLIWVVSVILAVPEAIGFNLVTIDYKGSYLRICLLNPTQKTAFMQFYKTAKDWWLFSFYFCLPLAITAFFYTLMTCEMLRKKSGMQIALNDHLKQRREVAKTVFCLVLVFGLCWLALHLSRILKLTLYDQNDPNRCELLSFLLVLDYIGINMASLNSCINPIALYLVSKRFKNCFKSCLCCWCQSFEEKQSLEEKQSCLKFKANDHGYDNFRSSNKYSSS
Experimental: as §2

[4] = test system: porcine pulmonary arteries; settings: isolated, endothelium-intact porcine pulmonary arteries; cited from earlier work

Molecule	IC50 (recombinant human ETB R)	IC50 [1]	IC50 [2]	IC50 (recombinant human ETA R)	IC50 [3]	vasorelaxation [4]
COc1cccc(Sc2c(C(=O)O)n(Cc3ccc4c(c3)OCO4)c3cc(OC)c(OC)cc23)c1 [Example 2]	1100 nM	100 nM	30 nM	–	–	–
COc1cccc(Sc2c(C(=O)O)n(Cc3ccc4c(c3)OCO4)c3cc4c(cc23)OCO4)c1 [Example 6, 5-Benzo[1,3]dioxol-5-ylmethyl-7-(3-methoxy-phenylsulfanyl)-5H-[1,3]dioxolo[4,5-f]indole-6-carboxylic acid]	710 nM	–	–	84 nM	–	–
O=C(O)c1c(Sc2ccc3c(c2)OCO3)c2ccccc2n1Cc1ccc2c(c1)OCO2 [Example 5, 1-Benzo[1,3]dioxol-5-ylmethyl-3-(benzo[1,3]dioxol-5-ylsulfanyl)-1H-indole-2-carboxylic acid]	4500 nM	–	570 nM	380 nM	–	–
COc1ccc(Sc2c(C(=O)O)n(Cc3ccc4c(c3)OCO4)c3cc4c(cc23)OCO4)cc1OC [Example 8, 5-Benzo [1,3]dioxo1-5-ylmethyl-7-(3,4-dimethoxyphenylsulfanyl)-5H-[1,3]dioxolo[4,5-f]indole-6-carboxylicacid]	170 nM	316 nM	–	39 nM	316 nM	–
COc1cccc(Sc2c(C(=O)O)n(Cc3cc(OC)c4c(c3)OCO4)c3cc4c(cc23)OCO4)c1 [Example 7, 5-(7-Methoxy-benzo[1,3]dioxol-5-ylmethyl)-7-(3-methoxy-phenylsulfanyl)-5H-[1,3]dioxolo[4,5-f]indole-6carboxylic acid]	2900 nM	–	–	380 nM	–	–
COc1ccc(Sc2c(C(=O)O)n(Cc3cc(OC)c4c(c3)OCO4)c3cc4c(cc23)OCO4)cc1OC [Example 9, 7-(3,4-Dimethoxy-phenylsulfanyl)-5-(7-methoxy-benzo[1,3]dioxol-5-ylmethyl)-5H-[1,3]dioxolo[4,5-f]indole-6-carboxylic acid]	420 nM	–	–	170 nM	–	–
COc1cccc(Sc2c(C(=O)O)n(Cc3ccccc3)c3ccccc23)c1 [Example 4, 1-Benzyl-3-(3-methoxy-phenylsulfanyl)-1H-indole-2carboxylic acid]	1500 nM	–	7300 nM	4600 nM	–	–
COc1cc2c(Sc3ccc4c(c3)OCO4)c(C(=O)O)n(Cc3ccc4c(c3)OCO4)c2cc1OC [Example 17, 1-Benzo[1,3]dioxol-5-ylmethyl-3-(benzo[1,3]dioxol-5-ylsulfanyl)-5,6-dimethoxy-1H-indole-2-carboxylic acid]	–	50.1 nM	631 nM	–	–	–
CCCOc1ccc2c(Sc3cccc(OC)c3)c(C(=O)O)n(Cc3ccc4c(c3)OCO4)c2c1 [Example 10, 1-Benzo[1,3]dioxol-5-ylmethyl-3-(3-methoxy-phenylsulfanyl)-6-propoxy-1H-indole-2-carboxylic acid]	6700 nM	–	–	590 nM	–	–
COc1cccc(Sc2c(C(=O)O)n(Cc3ccc(OC)cc3OCC(=O)O)c3cc(OC)c(OC)cc23)c1 [Example 16, 1-(2-Carboxymethoxy-4-methoxy-benzyl)-5,6-dimethoxy-3-(3-methoxy-phenylsulfanyl)-1H-indole-2carboxylic acid]	1200 nM	–	–	480 nM	–	–
ET[1,3,11,15-A1a]: selective ETB agonist, linear analog (ASASSLMDKEAVYFAHLDIIW; Endothelin-1; UniProt P05305 53-73, looked up, variant C1A C3A C11A C15A)	–	–	–	–	–	caused vasorelaxation
COc1cccc(Sc2c(C(=O)O)n(Cc3ccc4c(c3)OCO4)c3ccccc23)c1 [Example 3, 1-Benzo[1,3]dioxol-5-ylmethyl-3-(3-methoxy-phenylsulfanyl)-1H-indole-2-carboxylic acid]	7400 nM	–	500 nM	90 nM	–	–
COc1ccc(Cn2c(C(=O)O)c(Sc3cccc(OC)c3)c3cc(OC)c(OC)cc32)cc1 [Example 12, 5,6-Dimethoxy-1-(4-methoxy-benzyl)-3-(3-methoxy-phenylsulfanyl)-1H-indole-2-carboxylic acid]	870 nM	–	–	160 nM	–	–
COc1cc2c(Sc3cc(OC)c(OC)c(OC)c3)c(C(=O)O)n(Cc3ccc4c(c3)OCO4)c2cc1OC [Example 14, 1-Benzo[1,3]dioxol-5-ylmethyl-5,6-dimethoxy-3-(3,4,5-trimethoxy-phenylsulfanyl)-1H-indole-2-carboxylic acid]	–	31.6 nM	–	–	3160 nM	–
O=C(O)c1c(Sc2ccccc2)c2ccccc2n1-c1ccc2c(c1)OCO2 [Example 1, 1-Benzo-[1,3]dioxol-5-yl-3-phenylsulfanyl-1H-indole-2-carboxylic acid]	6500 nM	–	1900 nM	3200 nM	–	–
COc1cccc(Sc2c(C(=O)O)n(Cc3cc(OC)c4c(c3)OCO4)c3cc(OC)c(OC)cc23)c1 [Example 11, 5,6-Dimethoxy-1-(7-methoxy-benzo[1,3]dioxol-5-ylmethyl)-3-(3-methoxy-phenylsulfanyl)-1H-indole-2carboxylic acid]	1100 nM	–	–	58 nM	–	–
COc1cccc(Sc2c(C(=O)O)n(Cc3ccc4c(c3)OCO4)c3cc(OC)c(OCc4ccccc4)cc23)c1 [Example 13, 1-Benzo[1,3]dioxol-5-ylmethyl-5-benzyloxy-6-methoxy-3-(3-methoxy-phenylsulfanyl)-1H-indole-2-carboxylic acid]	690 nM	–	–	81 nM	–	–
COc1cc2c(Sc3ccc4c(c3)OCO4)c(C(=O)O)n(Cc3ccc4c(c3)OCO4)c2cc1OCc1ccccc1 [Example 15, 1-Benzo[1,3]dioxol-5-ylmethyl-3-(benzo[1,3]dioxol-5-ylsulfanyl)-6-benzyloxy-5-methoxy-1H-indole-2-carboxylic acid]	53 nM	–	–	690 nM	–	–
